Results from PMC6271179 (Molecules, 2014).

Legend:
[1] = In vivo pharmacokinetics after oral (intragastric) administration to rats; conditions: rat
Description: Derivative 2 was administered to overnight-fasted male Wistar rats from the facility of the Department of Biomedical Sciences as a single intragastric dose (88 µmol/kg, dissolved in 250 µL water). Blood samples were obtained by the tail bleeding technique: before drug administration, rats were anesthetised with isoflurane and the tip of the tail was cut off; blood samples (80–100 µL each) were then taken from the tail tip at different time points after drug administration. Blood was collected in heparinised tubes, kept in ice and treated as described in [90] within 10 min.
For quantification purposes we assumed the same absorption coefficient.

[2] = test system: explanted rat jejunum segments; assay: Permeation across explanted rat jejunum segments in Ussing-type chambers (ex vivo)
Description: We assayed transport of the derivatives across explanted rat jejunum segments using Ussing-type chambers.
Intestine was excised from 18 h fasted rats and transferred into a saline solution (154 mM NaCl in water) at 37 °C. The jejunum was cut into 1 cm long strips, opened longitudinally, rinsed free of luminal content and mounted in Ussing-type chambers. Apical and basolateral compartments were filled with 1 mL each of oxygenated HEPES buffer (248 mM NaCl, 55.3 mM glucose, 50 mM NaHCO3, 9.9 mM KCl, 1.9 mM MgSO4, 40 mM HEPES, pH 6.8), and incubated in a water bath at 37 °C until all chambers were assembled (approximately 20 min). The buffer was then removed and substituted with 1 mL of a 20 µM solution (in the same buffer) of the compound to be tested on the apical side (dilution from a 20 mM stock solution), and with 1 mL of fresh HEPES buffer on the basolateral one. […] During the experiment, oxygen was continuously bubbled in each basolateral compartment. […]
Samples (2 µL) were analyzed by HPLC/UV (1290 Infinity LC System, Agilent Technologies) using a reverse phase column (Zorbax RRHD Eclipse Plus C18, 1.8 µm, 50 x 2.1 mm i.d.; Agilent Technologies) and a UV diode array detector (190-500 nm). […]

In the case of `CN(CCCCOC1C(O)C(O)OC(CO)C1O)C(=O)Oc1ccc(C=Cc2cc(OC(=O)N(C)CCCCOC3C(O)C(O)OC(CO)C3O)cc(OC(=O)N(C)CCCCOC3C(O)C(O)OC(CO)C3O)c2)cc1` [derivative 2, 3,4',5-Tri-[α/β-D-glucopyranose-3-(4-N-methyl-N-butoxy)]-resveratrol carbamate], the Tmax ([1]; male, Wistar, whole blood, po, 88 umol/kg, single intragastric dose 88 µmol/kg, blood, read-out: time of maximum blood levels (converted)) is reported as roughly 1 h, the “concentration of the derivative in the bloodstream” value ([1]; gavage 88 µmol/kg, during the 4 hours following administration) is reported as “low concentrations” and the “resveratrol and its common metabolites in blood after oral administration (hydrolysis of carbamate groups)” value ([1]; oral, also basolateral chamber ex vivo) is reported as “Neither resveratrol nor its common metabolites were present in detectable amounts”. For the same compound, the “species detected in the basolateral chamber” value ([2]; 20 µM apical, 2.5 h) was “only the intact derivative was detected” and the “extent of translocation with SGLT-1/GLUT-2 inhibitors (phlorizin, phloretin, cytochalasin B), low glucose, non-fasted or glucose-fed rats” value ([2]; comparison among conditions) was “not to differ significantly”.
